Values quoted from earlier work, collected in publication PMC10363405 (Methods in molecular biology (Clifton, N.J.), 2022).

Target: β-tubulin
Assay: fluorescence enhancement titration with crosslinked microtubules
Assay type: binding, Bos taurus

Structure (SMILES): CC(=O)OC1C(=O)C2(C)C(OC(=O)CCNC(=O)c3cc4cc(F)c(O)c(F)c4oc3=O)CC3OCC3(OC(C)=O)C2C(OC(=O)c2ccccc2)C2(O)CC(OC(=O)C(O)C(NC(=O)c3ccccc3)c3ccccc3)C(C)=C1C2(C)C (stereo not drawn) [PB-β-Ala-Taxol]
- Kd: 63 ± 8 nM
